Legend:
[1] = system: KOPTK1 cells; test: Polysome profiling; format: cell-based, human; conditions: 25 nM, 45 minutes
Method: Polysome profiling. KOPTK1 cells were treated with silvestrol or DMSO for 45 minutes, followed by cycloheximide treatment for 10 minutes. Cell pellet was lysed in polysome lysis buffer (300 mM NaCl, 15 mM Tris-HCl (pH 7.5), 15 mM MgCl2, 1% TritonX-100, 0.1 mg/ml Cycloheximide, 1 mg/ml Heparin). Polysome fractions were isolated using 4 ml 10-50% sucrose density gradients (300 mM NaCl, 100 mM MgCl2, 15 mM Tris-HCl (pH 7.5), 1 mg/ml Cycloheximide, 10 mg/ml Heparin). Gradients were centrifuged in an SW40Ti rotor at 35,000 rpm for 2 hrs. Fractions of 100 ul were collected manually from the top, and optical density (OD) at […] was measured.
FIG. 10 depicts ribosome profiling quality control data and effects on translation. A and B) Read counts by length of mapped sequence before and after filtering rRNA, linker reads, non-coding RNAs, short mapped sequences (“noisy” reads; see text and method for details). C and D) Read length frequency histograms and mapping analysis of ribosome footprint data after quality control filtering for vehicle treated cells (C) or silvestrol treated cells (D). […] F) Histogram of all genes' ribosome footprint intensity (measured as unique read number per million per gene, RPM) for silvestrol and vehicle treated cells indicating silvestrol affected mRNAs were broadly distributed (see text for details). […]

[2] = system: human T-ALL lines; test: Activity in established human T-ALL cell lines; format: cell-based; conditions: PTEN wild type vs PTEN mutant

COC(=O)[C@H]1[C@@H](O)[C@@]2(O)c3c(OC)cc(O[C@@H]4O[C@@H]([C@H](O)CO)CO[C@H]4OC)cc3O[C@@]2(c2ccc(OC)cc2)[C@@H]1c1ccccc1 [silvestrol]
polyribosome bound RNA (fractions 30-40) [1]: loss of polyribosome bound RNA
activity against PTEN wild type and PTEN mutant cell lines and primary T-ALL cells [2]: equal activity

From patent US20150219624A1, “METHODS FOR IDENTIFYING ANTI-CANCER COMPOUNDS” (MEMORIAL SLOAN KETTERING CANCER CENTER, priority 2013, published 2015)
